Columns and labels:
HPK1 [1] = target: T1, HPK1 (Homo sapiens, UniProt Q92918); assay: Western blot analysis of endogenous HPK1 level in Jurkat T cells; format: cell-based
T1 construct: endogenous in cells; host or cells: Jurkat T cells

primary GFP+ Tregs = assay: IL-2 production by primary GFP+ Tregs in response to TCR engagement; format: cell-based; conditions: stimulation by TCR engagement (FIG. 7)
HPK1 [2] = target: T2, HPK1 (Mus musculus, UniProt P70218); assay: HPK1 degradation in primary mouse T cells; format: cell-based; conditions: 300 nM
T2 construct: HPK1 degraders could effectively degrade endogenous HPK1 in murine T cells; endogenous in cells; host or cells: primary mouse T cells
T2 sequence (P70218 1-827): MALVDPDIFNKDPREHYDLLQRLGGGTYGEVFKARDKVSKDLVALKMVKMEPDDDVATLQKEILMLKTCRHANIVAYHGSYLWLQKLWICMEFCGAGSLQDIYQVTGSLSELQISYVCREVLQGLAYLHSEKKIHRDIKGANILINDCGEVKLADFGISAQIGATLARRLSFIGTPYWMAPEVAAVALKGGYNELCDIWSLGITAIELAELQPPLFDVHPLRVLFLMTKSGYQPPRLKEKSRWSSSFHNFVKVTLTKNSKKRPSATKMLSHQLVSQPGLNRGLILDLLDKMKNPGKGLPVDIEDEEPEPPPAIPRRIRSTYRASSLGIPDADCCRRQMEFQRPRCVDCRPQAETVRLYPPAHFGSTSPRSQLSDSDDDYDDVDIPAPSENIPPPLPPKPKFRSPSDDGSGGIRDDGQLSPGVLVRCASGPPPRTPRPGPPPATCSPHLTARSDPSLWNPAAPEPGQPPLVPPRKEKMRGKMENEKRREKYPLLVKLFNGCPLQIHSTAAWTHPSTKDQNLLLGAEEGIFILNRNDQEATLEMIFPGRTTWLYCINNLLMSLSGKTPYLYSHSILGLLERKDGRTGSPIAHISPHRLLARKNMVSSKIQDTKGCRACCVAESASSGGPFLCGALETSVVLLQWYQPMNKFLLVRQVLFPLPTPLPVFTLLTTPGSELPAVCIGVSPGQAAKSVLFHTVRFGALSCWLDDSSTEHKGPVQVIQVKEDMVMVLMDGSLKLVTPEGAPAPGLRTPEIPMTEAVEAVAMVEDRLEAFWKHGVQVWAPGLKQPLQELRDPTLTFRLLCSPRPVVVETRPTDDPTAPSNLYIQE
Experimental: (§1) EXAMPLE 348. Several compounds according to the present invention employing the indolin-2-one HPK1 binding base, (which henceforth shall be referred to as the HC58 series, the HC65 series and the HC75 series) were assessed on their abilities to degrade HPK1 and produce an elevated IL-2 response profile upon stimulation by anti-CD3- and anti-CD28-mAb-mediated (CD3XCD28) stimulation (FIGS. 1-4). The elevated IL-2 response profile induced by TCR engagement after exposure to HC58 series of HPK1 degraders is shown in FIG. 1. […] A select sub-set of the lead HPK1 degraders from the HC58 series were further characterized to determine whether they could degrade primary mouse T cells.
EXAMPLE 353. HPK1 is expressed in all hematopoietic cells examined to date, including T cells, B cells, dendritic cells and neutrophils. Because the breath of therapeutic approaches might involve the use of Chimeric Antigen Receptor (CAR) T cells, dendritic cells, TCR transgenic T cells and Tumor Infiltrating Lymphocytes (TILs), selected HPK1 degraders were evaluated to determine whether they could degrade HPK1 effectively in some of these cell types. […] Potent degradation of HPK1 by HPK1 degraders was also observed in the human DC1 dendritic cells.

primary murine T cells [3] = assay: IL-2 production by primary murine T cells; format: cell-based, mouse
Experimental: as §1

primary murine T cells [4] = assay: Proliferation of primary murine T cells; format: cell-based, mouse
Experimental: as §1

CD4+eGFP+ Tregs = assay: IL-2 production by regulatory T cells (Tregs) on CD3XCD28 stimulation (IL-2 ELISA); format: cell-based, mouse; conditions: compared with HPK1-/- Tregs
Description: EXAMPLE 350. It was observed that HPK1^−/− regulatory T cells (Treg), unlike their wild type counterparts, could readily produce IL-2 in response to CD3XCD28 stimulation. Taking advantage of the FoxP3-driven eGFP reporter mice that express eGFP only in the FoxP3^+ regulatory T cells (Tregs), bonafide Tregs were purified from spleens and lymph nodes by FACS-assisted sorting of CD4^+eGFP^+ Tregs and used as the source of ex vivo functional studies. The ability of the wild type Treg, the HPK1^−/− Tregs and the HC58-78-treated wild type Tregs to produce IL-2 in response to CD3XCD28 stimulation was compared. […] Wild type regulatory T cells could not produce the IL-2 in response to the same stimulation due to the transcriptional repression of the IL-2 locus by the FoxP3 transcription factor (FIG. 7, the white histogram bar).

human PBMCs = assay: Intracellular IFNγ and TNFα staining of human PBMC (FACS); format: cell-based; conditions: in combination with blinatumomab
Description: EXAMPLE 355. One of the mechanisms employed by PBMC to kill their target cells is by releasing IFNγ and TNFα production. These inflammatory cytokines are known have potent cytolytic effects on cancer cells. […] Mediated PBMC killing of the Raji cells is most evident at PBMC:Raji ratio of 5:1 (FIG. 13).
To determine the number of CD19^+ Raji cells killed by human PBMC that were activated by the Blinatumomab-mediated activation, we used CountBright cell counting beads to estimate the number of cells remained after 72 hours of co-culturing of PBMC and Raji. As for the intracellular staining of the TNFα and the IFNγ, the standard para-formaldehyde-based “fix and perm” procedure was used in order to quantitate the amount of intracellular cytokine trapped inside the cells by brefeldin A. FACS analysis of stained cells is performed by BD's LSR II FACS.

T1 sequence (Q92918 whole entry): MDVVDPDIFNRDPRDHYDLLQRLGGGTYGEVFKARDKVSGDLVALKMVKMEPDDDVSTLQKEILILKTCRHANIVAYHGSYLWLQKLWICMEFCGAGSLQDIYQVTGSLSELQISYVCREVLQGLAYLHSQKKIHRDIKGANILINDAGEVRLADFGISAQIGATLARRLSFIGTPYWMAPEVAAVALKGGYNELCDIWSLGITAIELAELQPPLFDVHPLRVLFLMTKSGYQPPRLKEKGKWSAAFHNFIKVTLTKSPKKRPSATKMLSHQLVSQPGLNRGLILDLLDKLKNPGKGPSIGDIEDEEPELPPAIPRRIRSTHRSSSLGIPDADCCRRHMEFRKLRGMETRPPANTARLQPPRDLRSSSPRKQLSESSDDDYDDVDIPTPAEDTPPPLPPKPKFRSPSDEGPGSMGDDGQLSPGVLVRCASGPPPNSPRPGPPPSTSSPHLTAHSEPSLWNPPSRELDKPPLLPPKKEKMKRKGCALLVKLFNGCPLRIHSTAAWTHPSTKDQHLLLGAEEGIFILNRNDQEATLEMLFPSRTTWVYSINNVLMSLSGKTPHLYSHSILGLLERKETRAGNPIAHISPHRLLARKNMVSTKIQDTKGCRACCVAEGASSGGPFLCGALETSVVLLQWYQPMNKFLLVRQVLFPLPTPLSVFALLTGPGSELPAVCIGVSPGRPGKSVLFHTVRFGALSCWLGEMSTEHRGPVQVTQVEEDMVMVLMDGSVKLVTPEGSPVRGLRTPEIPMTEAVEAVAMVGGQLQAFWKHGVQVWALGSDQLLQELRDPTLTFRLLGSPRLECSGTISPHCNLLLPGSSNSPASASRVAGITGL

For `Cc1[nH]c(/C=C2\C(=O)Nc3ccc(F)cc32)c(C)c1C(=O)NCCCN1CCN(CC(=O)NCCCCCCCCNc2cccc3c2C(=O)N(C2CCC(=O)NC2=O)C3=O)CC1` (centres unmarked) [HC58-78, (Z)—N-(3-(4-(2-((8-((2-(2,6-dioxopiperidin-3-yl)-1,3-dioxoisoindolin-4-yl)amino)octyl)amino)-2-oxoethyl)piperazin-1-yl)propyl)-5-((5-fluoro-2-oxoindolin-3-ylidene)methyl)-2,4-dimethyl-1H-pyrrole-3-carboxamide], the “endogenous level of HPK1” value (HPK1 [1]; Jurkat T cells, multiple day post exposure (FIG. 3)) was “could reduce the endogenous level of HPK1”, the “reducing HPK1 protein levels” value (HPK1 [1]; characterization of exemplary degraders (FIGS. 1-14)) was “especially effective in reducing HPK1 protein levels” and the IL-2 production (primary GFP+ Tregs) was “elevated IL-2 production”. For the same compound, the “degradation of HPK1 protein in primary T cells compared with Jurkat T cells” value (HPK1 [2]) was “could degrade more HPK1 protein in primary T cells than in Jurkat T cells”, the “IL-2 production compared with the DMSO-treated counterpart” value (primary murine T cells [3]) was “produced more IL-2 than the DMSO-treated counterpart” and the “proliferation compared with the DMSO-treated counterpart” value (primary murine T cells [4]) was “proliferate much more quickly than the DMSO-treated counterpart”. The “IL-2 production by treated wild type Tregs” value (CD4+eGFP+ Tregs) was “produced IL-2 at level comparable to that produced by HPK1^−/− Tregs” and the “percentage of human PBMCs that express high level of IFNγ and TNFα” value (human PBMCs) was “significantly increased”.
